As a reminder, the IC50 is the concentration that inhibits the measured activity by half.

For data set [1], the system named is JNK, Erk1/2 and p38 phosphorylation in A549 and H292 cells. Put plainly: Western blot of MAPK phosphorylation (JNK, Erk1/2, p38). The class given is cell-based, human. The note with it: for Erk1/2 and p38 phosphorylation: diplatin 10, 25, 50 μM, DDP 5 μM, CBP 100 μM. As to the method:
(§1) Cells were treated with diplatin, DDP, and CBP before being lysed. After centrifugation at 12,000 rpm for 10 min, an equal amount of protein from each group was subjected to electrophoresis on 10% SDS-PAGE gels. The proteins in the gel were then electroblotted onto polyvinylidene fluoride (PVDF) membranes (Millipore, Massachusetts, USA). After incubation in the blocking buffer (1× TBS, 0.1% Tween-20, and 5% w/v dry nonfat milk) for 1 h at room temperature, the membranes were incubated with the primary antibody at 4°C overnight. Next, membranes were rinsed with TBST, and then secondary antibodies were applied (LI-COR, USA) at room temperature for 1 h. Immunoreactive bands were visualized by a two-color infrared imaging system (Odyssey, LI-COR, USA).
(A western blot detects proteins with antibodies after separation by electrophoresis.)

Another data set concerns A549. Put plainly: MTT cell viability assay, A549. The class given is cell-based, human. The settings on record: 48 h. As to the method:
(§2) Cells were seeded at a density of 1 × 10^4 cells per well in 96-well plates. The following day, these cells were washed with PBS and exposed to different concentrations of testing compounds in culture medium for 48 h. MTT solution (10 μl at 5 mg/ml) was added to each well. After 4 h of incubation at 37°C, the medium was removed, and the insoluble precipitate was dissolved in 100 μl DMSO (Sigma, St. Louis, MO, USA). The absorbance of the dissolved solution at 490 nm was measured using a microplate reader (TECAN A-5082; Megllan, Austria). Cell viability percentages were calculated by dividing the mean optical density (OD) of compound-containing wells by that of the control wells. Each experiment was replicated three times. The IC50 of testing drugs was calculated with Statistical Product and Service Solutions software (SPSS, version 16.0).

Another data set relates to H460 cells. Nature of the data set: Cell cycle by PI flow cytometry, H460. The class given is cell-based, human. The note with it: diplatin 50 µM, DDP 5 µM, CBP 100 µM. As to the method: (§3) Then, the cells were trypsinized, washed with PBS, and fixed in 1.5 ml 95% ethanol and left at 4°C overnight. They were then incubated with RNase and stained with propidium iodide (PI) (Multi Sciences Biotech Co., Ltd). PI absorbance was determined using a Cytomics FC500 Flow Cytometer (Beckman Coulter, USA).
(In general: Flow cytometry measures light scatter and fluorescence of single cells or particles in a stream.)

The next data set concerns lung tumor cell lines. Put plainly: MTT cell viability assay, panel of lung tumor cell lines. The class given is cell-based, human. The settings on record: 48 h, read-out: IC50 range over the lung tumor cell lines. As for the experimental part: as §2
Background: Tetrazolium dyes change colour on reduction, which living cells bring about.

For a further data set, the system named is Calu-3. Put plainly: MTT cell viability assay, Calu-3. The class given is cell-based, human. The note with it: 48 h. As to the method: as §2
Data set [2] can be described thus: Splenic index (spleen weight-to-body weight ratio). The class given is in vivo, mice. The note with it: diplatin 30, 60, 120 mg/kg; DDP 6 mg/kg; CBP 60 mg/kg.
The next data set deals with normal ICR mice. Put plainly: LD50 in normal ICR mice. The class given is in vivo. The note with it: tail vein injection. As for the experimental part:
(§4) After injection, the animals’ condition was monitored every day for over 1 week by an observer who was blinded to the dose and drug allocation.
(§5) Estimates for ED50 and LD50 were calculated through nonlinear regression, data were fitted to a sigmoidal dose-response relationship in Prism (version 4.0a; GraphPad Software, Inc., San Diego, CA). The data were fitted to the equation:
(§6) Y=Ymin+Ymax−Ymin/1+10^(LogED50−X)∗HillSlope
(§7) where X is the logarithm of concentration, and Y is the response.

In data set [3] the test system is A549, NCI-H292, NCI-H460, and LTEP-A-2 xenograft models. Nature of the data set: ED50 (50% reduction of xenograft tumor volume) in nude mice. The class given is in vivo. The note with it: dose reducing xenograft tumor volume by 50%; average over A549, NCI-H292, NCI-H460, and LTEP-A-2 xenograft models. As to the method:
as §4, §5, §6, §7

Data set [4] has as its system peripheral blood cell count. Nature of the data set: Peripheral blood cell count of treated xenograft mice. The class given is in vivo. The note with it: diplatin 120 mg/kg; DDP 6 mg/kg; CBP 60 mg/kg.
The subject of the next data set is HCC827. Put plainly: MTT cell viability assay, HCC827. The class given is cell-based, human. The note with it: 48 h. As to the method:
as §2

In data set [5] the test system is bone marrow karyocyte count. Nature of the data set: Bone marrow karyocyte count. The class given is in vivo, mice.
The next data set relates to LTEP-A-2. Nature of the data set: MTT cell viability assay, LTEP-A-2. The class given is cell-based, human. The settings on record: 48 h. As for the experimental part:
as §2

For the next data set, the system named is H292 cells. Put plainly: Cell cycle by PI flow cytometry, H292. The class given is cell-based, human. The note with it: diplatin 50 μM, DDP 5 μM, CBP 100 μM. As to the method: as §3
The next data set relates to A549 tumors. Put plainly: TUNEL assay of A549 xenograft tumor sections. The class given is in vivo, mice. The note with it: diplatin 120 mg/kg, DDP 6 mg/kg, CBP 60 mg/kg. As for the experimental part:
(§8) Tumor tissues were fixed in 10% formalin for 4 h and then embedded in paraffin. Five-micrometer-thick sections were sliced and stained for apoptotic cells with TUNEL assay kit in accordance with manufacturer instructions (KGI Biotechnology Company, Nanjing, China). A positive result was marked by brown staining in the cell nucleus. Cell images were acquired through a microscope (Olympus BX 51, Japan). The apoptotic index (AI) was determined as a percentage of apoptotic cells from at least 1,000 cells in each mouse.

In another data set the test system is H292. Put plainly: MTT cell viability assay, H292. The class given is cell-based, human. The settings on record: 48 h. As for the experimental part:
as §2

In a further data set the test system is LTEP-A-2 cells. Put plainly: Cell cycle by PI flow cytometry, LTEP-A-2. The class given is cell-based, human. The note with it: diplatin 50 µM, DDP 5 µM, CBP 100 µM. As to the method: as §3
For the next data set, the system named is H1650. Nature of the data set: MTT cell viability assay, H1650. The class given is cell-based, human. The settings on record: 48 h. As to the method: as §2
Another data set deals with A549/DDP. Put plainly: MTT cell viability assay, A549/DDP. The class given is cell-based, human. The note with it: A549/DDP (DDP-resistant), 48 h. As to the method:
as §2

The subject of data set [6] is BEAS-2B normal human lung epithelial cell line. Put plainly: MTT cell viability assay, BEAS-2B. The class given is cell-based. The note with it: BEAS-2B normal lung epithelial cells; MTT; 48 h. As for the experimental part:
as §2

In another data set the test system is H460. Nature of the data set: MTT cell viability assay, H460. The class given is cell-based, human. The note with it: 48 h. As to the method:
as §2

Another data set deals with H1299. Put plainly: MTT cell viability assay, H1299. The class given is cell-based, human. The settings on record: 48 h. As for the experimental part: as §2
A short description of data set [7]: Body weight and tolerability of A549 and H292 xenograft mice. The class given is in vivo. The settings on record: diplatin 120 mg/kg; CBP 60 mg/kg; every 3 days i.v.
Protocol: Cells in logarithmic growth were washed with PBS and suspended in serum-free medium. Portions of the suspension (5 × 10^6 cells in 0.1 ml/mouse) were mixed at a 3:1 ratio with Matrigel basement membrane matrix and injected subcutaneously into the mice. Following 2 weeks of growth, tumor tissues were cut into multiple 2 × 2 × 2 mm^3 pieces and implanted using a range trocar subcutaneously (s.c. injection) into the left forepaw armpit of each mouse ([Jiang et al., 2017]). Treatment with pharmacology was started when the tumors reached an average volume of 100–200 mm^3. The mice were randomly divided into six groups (n = 14/group).
Body weight and tumor size were assessed every 3 days. Tumor size was measured using a caliper, the volumes were calculated according to the following standard formula: V = (L × W^2)/2 (V = tumor volume, L = largest diameter of tumor, W = smallest diameter of tumor). On day 25, all mice were sacrificed by cervical dislocation, and the tumors were removed and weighed.
A further data set concerns H292 tumors. Put plainly: TUNEL assay of H292 xenograft tumor sections. The class given is in vivo, mice. The note with it: diplatin 120 mg/kg, DDP 6 mg/kg, CBP 60 mg/kg. As for the experimental part:
as §8

The next data set deals with A549 cells. Put plainly: Cell cycle by PI flow cytometry, A549. The class given is cell-based, human. The note with it: diplatin 50 μM, DDP 5 μM, CBP 100 μM. As for the experimental part: as §3
In data set [8] the test system is p53, Fas, and Bax expressions in A549 and H292 cells. Nature of the data set: Western blot of p53, Fas and Bax. The class given is cell-based, human. The note with it: 10 μM SP600125 pretreatment 0.5 h, 25 μM diplatin 48 h. As to the method: as §1
On the set-up of data set [9]: method as in Moraleja et al., 2018. The settings on record: rats; ref Moraleja et al., 2018; cited from earlier work.

Molecules are shown by their SMILES.

For `N.N.O=C([O-])C1(C(=O)[O-])CCC1.[Pt+2]` [CBP, carboplatin], in [1], the “Erk1/2 and p38 phosphorylation” value is “failed to induce Erk1/2 and p38 phosphorylation”. For the same compound, the IC50 in the data set on A549 was 221 µM; in the data set with lung tumor cell lines it was 57 to 790 µM; with Calu-3, 790 µM; with HCC827, 328 µM; with LTEP-A-2, 57 µM; in the data set on H292, 257 µM. Moreover, the IC50 came out at 209 µM with H1650; 300 µM in the data set on A549/DDP; 461 µM in [6]; 229 µM in the data set on H460; 274 µM with H1299. Besides, the “effect on cell cycle distribution” value in the data set on H460 cells, with H292 cells, in the data set on LTEP-A-2 cells and in the data set on A549 cells was “induced cell cycle arrest in S phase” throughout. Moreover, the “splenic index relative to control” value in data set [2] is reported as “no difference relative to control”. Moreover, the “Mice LD50” value in the data set with normal ICR mice is listed as 150 mg/kg. Besides, in data set [3], the “Mice ED50” value is 59.5 mg/kg. Also, the “decrease of peripheral blood cell count” value in [4] worked out at 67.9%. In addition, the “bone marrow karyocyte count compared with the 120 mg/kg diplatin-treated group” value in data set [5] (DDP 6 mg/kg, CBP 60 mg/kg) is reported as “decreased bone marrow karyocyte count more”. Moreover, the “apoptosis (apoptotic index, TUNEL)” value was found to be 18.5% in the data set on A549 tumors and 24.9% with H292 tumors. In [7], the “reduction of body weight by day 25” value is 18.71%.
Regarding `Oc1c2ccccc2c2c3c(cccc13)N=N2` [SP600125], in data set [8], the “effect on diplatin-induced p53, Fas, and Bax expression” value is on record as “suppressed”.
With `N.N.[Cl][Pt][Cl]` [DDP, cisplatin], in data set [1], the “Erk1/2 and p38 phosphorylation” value was “failed to induce Erk1/2 and p38 phosphorylation”. Further, in [1] (diplatin 10–50 μM, DDP 10 μM, 0.5 h), the JNK phosphorylation levels entry was “elevated”. The IC50 in the data set on A549 was found to be 46.7 µM; in the data set with Calu-3, 33.5 µM; in the data set with HCC827 it was 14.7 µM; with LTEP-A-2 it was 6.2 µM; with H292, 6 µM; with H1650, 11.6 µM. Moreover, the values for the IC50 (with A549/DDP; in data set [6]; with H1299) were 151 µM, 19.3 µM and 18.7 µM, respectively. Also, the “effect on cell cycle distribution” value with H460 cells, in the data set with H292 cells, with LTEP-A-2 cells and in the data set on A549 cells was “induced cell cycle arrest in S phase” throughout. Moreover, in data set [3], the “Mice ED50” value amounted to 6.0 mg/kg. Moreover, in data set [9], the “Pt accumulation in the kidney compared with the CBP group” value is on record as “approximately five-fold higher”. In data set [5] (mouse, in vivo), the “bone marrow karyocyte count compared with the 120 mg/kg diplatin-treated group” value is on record as “decreased bone marrow karyocyte count more”.

These data come from article PMC6749073 (Frontiers in Pharmacology, 2019).
